Data: ChEMBL document CHEMBL1201862, “PubChem BioAssay data set” (2004)
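Cells were grown in 96-well plates and exposed to each compound for 48 hours at five concentrations; endpoints were interpolated linearly between bracketing concentrations, or set to the highest concentration if not reached. Abbreviation: GI50, concentration required for 50% inhibition of growth.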 Activity calls are given as the source filed them. Cut-off read from the data, not from the text of the source: active = GI50 up to about 1.1 µM and inactive = higher.

Legend:
Test in all cases: NCI-60 cell line screen, 48 h
HCC 2998 = test system: HCC 2998
HCT-116 = test system: HCT-116
HCT-15 = test system: HCT-15
HL-60 = test system: HL-60
HOP-62 = test system: HOP-62
HOP-92 = test system: HOP-92
HT-29 = test system: HT-29
KM12 = test system: KM12
LOX IMVI = test system: LOX IMVI
NCI-H460 = test system: NCI-H460
OVCAR-4 = test system: OVCAR-4
RXF 393 = test system: RXF 393
SK-MEL-28 = test system: SK-MEL-28
SN12C = test system: SN12C
SNB-75 = test system: SNB-75
SW-620 = test system: SW-620
UO-31 = test system: UO-31
K562 = test system: K562
OVCAR-5 = test system: OVCAR-5
UACC-257 = test system: UACC-257

Structure (SMILES)	GI50 (HCC 2998)	GI50 (HCT-116)	GI50 (HCT-15)	GI50 (HL-60)	GI50 (HOP-62)	GI50 (HOP-92)	GI50 (HT-29)	GI50 (KM12)	GI50 (LOX IMVI)	GI50 (NCI-H460)	GI50 (OVCAR-4)	GI50 (RXF 393)	GI50 (SK-MEL-28)	GI50 (SN12C)	GI50 (SNB-75)	GI50 (SW-620)	GI50 (UO-31)	GI50 (K562)	GI50 (OVCAR-5)	GI50 (UACC-257)
O=c1ccn([C@@H]2C=C(CO)[C@@H](O)[C@H]2O)c(=O)[nH]1	> 625 µM (inactive)	> 625 µM (inactive)	> 625 µM	> 625 µM (inactive)	> 625 µM (inactive)	> 625 µM (inactive)	> 625 µM (inactive)	> 625 µM (inactive)	> 625 µM (inactive)	> 625 µM (inactive)	> 625 µM (inactive)	> 625 µM (inactive)	> 625 µM (inactive)	> 625 µM (inactive)	90.4 µM (inactive)	> 625 µM (inactive)	> 625 µM (inactive)			
COc1ccc(C2COc3cc(OC(C)=O)c(OC(C)=O)cc3C2)cc1 (centres undefined)	23.2 µM (inactive)	20.4 µM (inactive)	20.3 µM	2.54 µM (inactive)	31.6 µM (inactive)	9.08 µM (inactive)	28.2 µM (inactive)	11.4 µM (inactive)	16.5 µM (inactive)	13.9 µM (inactive)	16.7 µM (inactive)	15.5 µM (inactive)	23.8 µM (inactive)	17.5 µM (inactive)	7.76 µM (inactive)	14.3 µM (inactive)	19.5 µM (inactive)	16.3 µM (inactive)	27.1 µM (inactive)	23.6 µM (inactive)
CCCN1C(=O)/C(=C(/O)C(=O)OCC)C(c2ccc(OC)c(OC)c2)C1=O (centres undefined)	> 100 µM (inactive)	> 100 µM (inactive)	> 100 µM	> 100 µM (inactive)	> 100 µM (inactive)	> 100 µM (inactive)	> 100 µM (inactive)	> 100 µM (inactive)	> 100 µM (inactive)	> 31.6 µM (inactive)	> 100 µM (inactive)	> 100 µM (inactive)	> 100 µM (inactive)	> 100 µM (inactive)	> 100 µM (inactive)	> 100 µM (inactive)	> 100 µM (inactive)	> 100 µM (inactive)	> 100 µM (inactive)	> 100 µM (inactive)
CCCCN(C)/N=N/c1[nH]cnc1C(N)=O	> 94.4 µM (inactive)	> 100 µM (inactive)	> 100 µM	60.7 µM (inactive)		47.6 µM (inactive)	> 100 µM (inactive)	> 100 µM (inactive)	36.7 µM (inactive)	> 100 µM (inactive)	68.9 µM (inactive)	> 66.7 µM (inactive)	> 100 µM (inactive)	> 100 µM (inactive)	> 100 µM (inactive)	> 100 µM (inactive)	> 100 µM (inactive)	> 80.7 µM (inactive)	> 85.1 µM (inactive)	> 73.5 µM (inactive)
COc1ccc(/C=c2\sc3n(c2=O)CCN=3)cc1	62.4 µM (inactive)	> 100 µM (inactive)	> 100 µM	69.3 µM (inactive)	> 100 µM (inactive)	29.8 µM (inactive)	> 100 µM (inactive)	> 100 µM (inactive)	64.7 µM (inactive)	> 100 µM (inactive)	> 100 µM (inactive)	31.1 µM (inactive)	> 100 µM (inactive)	75.7 µM (inactive)	57.8 µM (inactive)	> 100 µM (inactive)	> 100 µM (inactive)	43.7 µM (inactive)	> 100 µM (inactive)	47.5 µM (inactive)
NCCCN(CCCN)CCN(CCN(CCCN)CCCN)CCN(CCCN)CCCN	> 100 µM (inactive)	> 100 µM (inactive)	> 100 µM	> 100 µM (inactive)	> 100 µM (inactive)	82.2 µM (inactive)	> 100 µM (inactive)		67.8 µM (inactive)	> 100 µM (inactive)	> 100 µM (inactive)		> 100 µM (inactive)	> 100 µM (inactive)	4.95 µM (inactive)	> 100 µM (inactive)	> 100 µM (inactive)	> 100 µM (inactive)	> 100 µM (inactive)	> 100 µM (inactive)
c1ccc(-n2cnnc2-c2nsc3ccccc23)cc1	> 100 µM (inactive)	> 100 µM (inactive)	74 µM	> 100 µM (inactive)	> 100 µM (inactive)	53.1 µM (inactive)	> 100 µM (inactive)	> 100 µM (inactive)	> 100 µM (inactive)	> 100 µM (inactive)	> 100 µM (inactive)	> 100 µM (inactive)	> 100 µM (inactive)	> 100 µM (inactive)	29.5 µM (inactive)	> 100 µM (inactive)	> 100 µM (inactive)	> 100 µM (inactive)	> 100 µM (inactive)	> 100 µM (inactive)
